Where two headings read alike, the source gives them in different places.
Experiments:
Assay type in all cases: cell-based
[1] = system: MDA-MB-231 (breast cancer); assay: Antiproliferative activity (CCK-8 cell viability), MDA-MB-231; settings: Homo sapiens, 72 h; for inhibition at 3.3 µM: Compound concentration: 3.3 μM; for inhibition at 10 µM: Compound concentration: 10 μM; for inhibition at 30 µM: Compound concentration: 30 μM
How it was run: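 Growth inhibition of human MDA-MB-231 breast cancer cells was assessed with a Cell Counting Kit-8. Cells cultured in DMEM plus 10% FBS were seeded at 2,000-5,000 cells/well, treated after attachment, and kept 72 h at 37° C. CCK-8 solution (10 μL) was added for 4 h, and absorbance at 450 nm was compared with DMSO-treated controls.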

HepG2 (liver cancer) = assay: Antiproliferative activity (CCK-8 cell viability), HepG2; settings: Homo sapiens, 72 h; for inhibition at 3.3 µM: Compound concentration: 3.3 μM; for inhibition at 10 µM: Compound concentration: 10 μM; for inhibition at 30 µM: Compound concentration: 30 μM
How it was run: (§1)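 Growth inhibition graded in bands from percent viability against DMSO vehicle, read as CCK-8 absorbance at 450 nm. Compound tested at 3.3, 10 or 30 μM for 72 h, 37 °C; media contained 10% FBS: DMEM for HepG2/SW480, MEM for HeLa, F-12K for A549.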

SW480 (colon cancer) = assay: Antiproliferative activity (CCK-8 cell viability), SW480; settings: Homo sapiens, 72 h; for inhibition at 3.3 µM: Compound concentration: 3.3 μM; for inhibition at 10 µM: Compound concentration: 10 μM; for inhibition at 30 µM: Compound concentration: 30 μM
How it was run: as §1

[2] = system: B16F10 (malignant melanoma); assay: Antiproliferative activity (CCK-8 cell viability), B16F10; settings: Mus musculus, 72 h, read-out: Antiproliferative activity in cancerous cells, B16F10 (inhibition of cell growth); for inhibition at 3.3 µM: B16-F10, Compound concentration: 3.3 μM; for inhibition at 10 µM: B16-F10, Compound concentration: 10 μM
How it was run: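 Cell growth inhibition was measured in B16F10 malignant melanoma cells with a Cell Counting Kit-8 viability assay. Cells were maintained in DMEM plus 10% fetal bovine serum, seeded at 2,000-5,000 cells/well in 96-well plates, and treated for 72 h at 37° C. Viability was expressed relative to DMSO-treated vehicle control wells.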

[3] = system: A431 (epidermoid carcinoma); assay: Antiproliferative activity (CCK-8 cell viability), A431; settings: Homo sapiens, 72 h; for inhibition at 3.3 µM: A-431, Compound concentration: 3.3 μM; for inhibition at 10 µM: A-431, Compound concentration: 10 μM; for inhibition at 30 µM: A-431, Compound concentration: 30 μM
How it was run: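 This growth inhibition assay used A431 cells maintained in Dulbecco's modified Eagle's medium plus 10% fetal bovine serum. Cells were seeded in 96-well plates, treated with compound for 72 h at 37° C., and then given 10 μL CCK-8 solution. After a further 4 h, absorbance was read at 450 nm.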

[4] = system: A549 (lung adenocarcinoma); assay: Antiproliferative activity (CCK-8 cell viability), A549; settings: Homo sapiens, 72 h; for inhibition at 3.3 µM: Compound concentration: 3.3 μM; for inhibition at 10 µM: Compound concentration: 10 μM; for inhibition at 30 µM: Compound concentration: 30 μM
How it was run: as §1

HeLa (cervical cancer) = assay: Antiproliferative activity (CCK-8 cell viability), HeLa; settings: Homo sapiens, 72 h, read-out: Antiproliferative activity in cancerous cells, HELA (inhibition of cell growth); for inhibition at 3.3 µM: Compound concentration: 3.3 μM; for inhibition at 10 µM: Compound concentration: 10 μM
How it was run: as §1

[5] = read-out: Antiproliferative activity in cancerous cells, MDA-MB-231 (inhibition of cell growth)
[6] = read-out: Antiproliferative activity in cancerous cells, HepG2 (inhibition of cell growth)
[7] = read-out: Antiproliferative activity in cancerous cells, SW480 (inhibition of cell growth)
[8] = read-out: Antiproliferative activity in cancerous cells, A431 (inhibition of cell growth)
[9] = read-out: Antiproliferative activity in cancerous cells, A549 (inhibition of cell growth)

| Structure (SMILES) | inhibition at 3.3 µM [1, 5] | inhibition at 10 µM [1, 5] | inhibition at 3.3 µM (HepG2 (liver cancer); [6]) | inhibition at 10 µM (HepG2 (liver cancer); [6]) | inhibition at 3.3 µM (SW480 (colon cancer); [7]) | inhibition at 10 µM (SW480 (colon cancer); [7]) | inhibition at 3.3 µM [2] | inhibition at 10 µM [2] | inhibition at 3.3 µM [3, 8] | inhibition at 10 µM [3, 8] | inhibition at 3.3 µM [4, 9] | inhibition at 10 µM [4, 9] | inhibition at 3.3 µM (HeLa (cervical cancer)) | inhibition at 10 µM (HeLa (cervical cancer)) | other results |
| --- | --- | --- | --- | --- | --- | --- | --- | --- | --- | --- | --- | --- | --- | --- | --- |
| CC1=C(CCOC(=O)n2ccnc2)c2cc(F)ccc2/C1=C\c1ccc(Oc2ccc(F)cc2)cc1 [A204, (Z)-2-(5-Fluoro-1-(4-(4-fluorophenoxy)benzylidene)-2-methyl-1H-inden-3-yl)ethyl 1H-imidazole-1-carboxylate] | < 30% | < 30% | < 30% | < 30% | < 30% | < 30% | < 30% | < 30% | < 30% | < 30% | < 30% | < 30% | < 30% | < 30% | inhibition at 30 µM ([1]; read-out: Antiproliferative activity in cancerous cells, MDA-MB-231): 30 to 50%; inhibition at 30 µM (HepG2 (liver cancer); read-out: Antiproliferative activity in cancerous cells, HepG2): < 30%; inhibition at 30 µM (SW480 (colon cancer); read-out: Antiproliferative activity in cancerous cells, SW480): 30 to 50%; inhibition at 30 µM ([3]; read-out: Antiproliferative activity in cancerous cells, A431): < 30%; inhibition at 30 µM ([4]; read-out: Antiproliferative activity in cancerous cells, A549): 30 to 50% |
| CCc1ccc2c(c1)/C(=C\c1ccc(COCc3ccc(F)cc3)cc1)C(C)=C2CC(=O)O [B121, (Z)-2-(6-Ethyl-1-(4-(((4-fluorobenzyl)oxy)methyl)benzylidene)-2-methyl-1H-inden-3-yl)acetic acid] | < 30% | < 30% | < 30% | ≥ 50% | < 30% | 30 to 50% | 30 to 50% | 30 to 50% | ≥ 50% | ≥ 50% | 30 to 50% | ≥ 50% | < 30% | ≥ 50% |  |
| COc1ccc(/C=C2/C(C)=C(CC(=O)O)c3cc(F)ccc32)cc1Cl [D12, (Z)-2-(1-(3-Chloro-4-methoxybenzylidene)-5-fluoro-2-methyl-1H-inden-3-yl)acetic acid] | < 30% | 30 to 50% | < 30% | 30 to 50% | < 30% | < 30% | < 30% | 30 to 50% | ≥ 50% | ≥ 50% | < 30% | < 30% | < 30% | 30 to 50% | inhibition at 30 µM [1, 5]: ≥ 50%; inhibition at 30 µM (HepG2 (liver cancer); [6]): ≥ 50%; inhibition at 30 µM (SW480 (colon cancer); [7]): ≥ 50%; inhibition at 30 µM ([2]; B16-F10, Compound concentration: 30 μM): ≥ 50%; inhibition at 30 µM [3, 8]: ≥ 50%; inhibition at 30 µM [4, 9]: ≥ 50%; inhibition at 30 µM (HeLa (cervical cancer); Compound concentration: 30 μM): ≥ 50% |
| CC1=C(CC(=O)O)c2cc(F)ccc2/C1=C\c1ccc(COCc2ccc(C)cc2)cc1 [B102, (Z)-2-(5-Fluoro-2-methyl-1-(4-(((4-methylbenzyl)oxy)methyl)benzylidene)-1H-inden-3-yl)acetic acid] | 30 to 50% | ≥ 50% | 30 to 50% | ≥ 50% | < 30% | ≥ 50% | < 30% | ≥ 50% | ≥ 50% | ≥ 50% | < 30% | ≥ 50% | < 30% | ≥ 50% |  |
